# According to US5840747A, “Calcium channel antagonists” (Eli Lilly and Company, priority 1995, dated 1998):
# Entries after “also recorded” stand apart in the source; their conditions may differ.
# Experiments:
# Format in all cases: cell-based
# [1] = molecular target: T1, calcium channels in vascular tissue (Rattus norvegicus, UniProt P22002); experiment: Contractile response of rat aorta to the calcium agonist BayK 8644; conditions: for inhibition of the contraction to BayK 8644: absence of an intact endothelium, 10 mM KCl prior to BayK 8644 (FIGS. 7 and 8)
# T1 construct: BayK 8644-induced contraction
# T1 sequence (P22002 whole entry): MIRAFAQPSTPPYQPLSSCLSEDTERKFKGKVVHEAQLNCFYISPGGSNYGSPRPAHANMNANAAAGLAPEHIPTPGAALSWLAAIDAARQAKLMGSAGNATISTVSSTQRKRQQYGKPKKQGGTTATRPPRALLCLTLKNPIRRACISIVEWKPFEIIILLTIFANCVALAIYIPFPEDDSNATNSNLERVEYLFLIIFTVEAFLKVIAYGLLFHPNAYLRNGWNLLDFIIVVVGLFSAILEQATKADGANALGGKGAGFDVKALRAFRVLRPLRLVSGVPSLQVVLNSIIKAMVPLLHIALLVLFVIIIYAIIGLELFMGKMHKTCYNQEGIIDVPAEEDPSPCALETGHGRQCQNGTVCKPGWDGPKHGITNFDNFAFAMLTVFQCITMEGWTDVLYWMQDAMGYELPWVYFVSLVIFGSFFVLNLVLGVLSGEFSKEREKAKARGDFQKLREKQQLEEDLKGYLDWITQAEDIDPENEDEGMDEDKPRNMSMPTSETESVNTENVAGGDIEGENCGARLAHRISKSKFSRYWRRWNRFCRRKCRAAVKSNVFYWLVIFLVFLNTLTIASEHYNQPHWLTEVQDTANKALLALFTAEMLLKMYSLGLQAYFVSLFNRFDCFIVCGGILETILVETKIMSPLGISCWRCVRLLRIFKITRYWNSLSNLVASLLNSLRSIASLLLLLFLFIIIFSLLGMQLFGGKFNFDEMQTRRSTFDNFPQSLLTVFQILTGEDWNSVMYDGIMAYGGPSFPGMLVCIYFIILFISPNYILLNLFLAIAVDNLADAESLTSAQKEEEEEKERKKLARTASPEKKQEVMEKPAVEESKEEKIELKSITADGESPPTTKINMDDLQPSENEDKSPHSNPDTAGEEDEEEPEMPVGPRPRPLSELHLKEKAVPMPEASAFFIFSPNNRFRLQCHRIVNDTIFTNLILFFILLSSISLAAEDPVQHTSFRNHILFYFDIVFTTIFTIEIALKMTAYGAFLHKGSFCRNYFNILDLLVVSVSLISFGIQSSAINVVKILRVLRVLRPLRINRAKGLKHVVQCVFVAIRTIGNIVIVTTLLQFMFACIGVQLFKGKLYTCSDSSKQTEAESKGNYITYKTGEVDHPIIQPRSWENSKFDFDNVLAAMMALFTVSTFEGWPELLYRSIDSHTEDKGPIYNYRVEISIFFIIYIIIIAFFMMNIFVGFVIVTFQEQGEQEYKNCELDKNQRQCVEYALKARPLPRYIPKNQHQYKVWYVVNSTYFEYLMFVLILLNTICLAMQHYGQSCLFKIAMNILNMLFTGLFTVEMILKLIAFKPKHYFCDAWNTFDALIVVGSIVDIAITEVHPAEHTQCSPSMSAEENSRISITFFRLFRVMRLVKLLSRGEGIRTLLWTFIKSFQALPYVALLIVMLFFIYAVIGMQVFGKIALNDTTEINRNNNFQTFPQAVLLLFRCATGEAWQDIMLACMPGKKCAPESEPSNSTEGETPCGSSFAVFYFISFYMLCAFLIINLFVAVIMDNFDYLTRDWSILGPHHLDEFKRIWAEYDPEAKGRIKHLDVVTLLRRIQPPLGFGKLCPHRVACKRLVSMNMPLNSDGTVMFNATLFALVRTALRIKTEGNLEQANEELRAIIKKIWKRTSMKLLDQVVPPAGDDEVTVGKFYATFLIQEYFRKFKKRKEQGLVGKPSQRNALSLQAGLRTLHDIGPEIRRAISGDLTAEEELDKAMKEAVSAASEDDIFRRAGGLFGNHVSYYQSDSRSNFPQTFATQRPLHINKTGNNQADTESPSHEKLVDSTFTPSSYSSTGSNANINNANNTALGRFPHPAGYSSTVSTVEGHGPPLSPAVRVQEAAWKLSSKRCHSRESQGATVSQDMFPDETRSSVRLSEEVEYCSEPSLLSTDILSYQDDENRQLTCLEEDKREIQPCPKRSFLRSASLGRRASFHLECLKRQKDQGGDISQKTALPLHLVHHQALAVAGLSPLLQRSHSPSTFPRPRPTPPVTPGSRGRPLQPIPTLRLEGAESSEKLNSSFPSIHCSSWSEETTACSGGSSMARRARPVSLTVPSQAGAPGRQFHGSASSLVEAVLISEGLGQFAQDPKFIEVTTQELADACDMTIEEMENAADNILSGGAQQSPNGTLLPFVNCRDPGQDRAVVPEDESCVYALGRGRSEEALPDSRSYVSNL
# Text: (§1) Male Wistar rats (250-350 g; Charles River Laboratories, Portage, Mich.) were sacrificed by cervical dislocation. The aorta was removed and cleaned of extraneous tissue and cut into ring segments, each approximately 4-5 mm long. In some tissues, endothelium was removed by rotating the ring segment around the tip of a forceps 10 times. Lack of tissue relaxation to acetylcholine (10^-6 M) after contraction with norepinephrine (10^-7 M) was used as evidence for denuded endothelium. Tissues with an intact endothelium relaxed to acetylcholine with 88.5±1.6% (n-11) relaxation.
# Ring segments were placed between two stainless steel hooks and mounted in isolated organ baths containing 10 ml of modified Krebs' bicarbonate buffer of the following composition (mM): NaCl, 118.2; KCl, 4.6' CaCl2.2H2 O, 1.6; KH2 PO4, 1.2; MgSO4, 1.2; glucose, 10; and NaHCO3, 24.8. Organ bath solutions were aerated with 95% O2 /5% CO2 and maintained at 37° C. Tissues were placed under an optimal force of 4 grams and equilibrated for one hour with washes every 15 minutes. Changes in force were recorded and analyzed by a Biopac MP100 (World Precision Instruments, Sarasota, Fla.) data acquisition system via Sensotec (model MBL 5514-02) transducers (Sensotec Inc. Columbus, Ohio).
# All tissues were initially challenged with KCl (67 mM) to establish viability. Concentration-response curves were generated in a cumulative fashion and are reported as a percentage of an initial KCl contraction (67 mM) produced in each tissue. Vehicle, β-estradiol, 14 or 16 were added to the tissues 60 minutes prior to initiating the concentration-response curves to agonists. In studies with BayK 8644, tissues were exposed to 10 mM KCl prior to initiating the concentration-response curves for BayK 8644. Only one agonist concentration-response curve was generated in each tissue. All results are expressed as mean±SE where n represents the number of rings examined. […]
# rat aorta [2] = experiment: Contractile responses of rat aortic rings to norepinephrine, serotonin and U46619 (isolated organ bath); conditions: for inhibitory effect on contractile responses to norepinephrine, serotonin, and U46619: summary in discussion; for dependence of the inhibition of contractile responses on the endothelium: rat aortic rings with versus without intact endothelium
# Text: Male Wistar rats (250-350 g; Charles River Laboratories, Portage, Mich.) were sacrificed by cervical dislocation. The aorta was removed and cleaned of extraneous tissue and cut into ring segments, each approximately 4-5 mm long. In some tissues, endothelium was removed by rotating the ring segment around the tip of a forceps 10 times. Lack of tissue relaxation to acetylcholine (10^-6 M) after contraction with norepinephrine (10^-7 M) was used as evidence for denuded endothelium. […] Tissues were placed under an optimal force of 4 grams and equilibrated for one hour with washes every 15 minutes. […] All tissues were initially challenged with KCl (67 mM) to establish viability. Concentration-response curves were generated in a cumulative fashion and are reported as a percentage of an initial KCl contraction (67 mM) produced in each tissue. Vehicle, β-estradiol, 14 or 16 were added to the tissues 60 minutes prior to initiating the concentration-response curves to agonists. […] Only one agonist concentration-response curve was generated in each tissue. All results are expressed as mean±SE where n represents the number of rings examined.
# rat aorta [3] = experiment: Endothelium integrity: relaxation to acetylcholine after contraction with norepinephrine; conditions: acetylcholine 10^-6 M after contraction with norepinephrine 10^-7 M, tissues with intact endothelium, n-11
# Text: as §1
# [4] = 10^-6 and 10^-5 M, rat aorta with and without intact endothelium, added 60 minutes prior to agonist
Compound,inhibition of the contraction to BayK 8644 [1],"inhibition of contractile responses to serotonin (rat aorta [2]; rat aorta with and without intact endothelium (FIG. 4), concentration not given)",inhibition of serotonin response compared with norepinephrine response (rat aorta [2]; rat aorta with and without intact endothelium (FIGS. 4 and 5)),"inhibitory effect on contractile responses to norepinephrine, serotonin, and U46619 (rat aorta [2]; rat aorta)",dependence of the inhibition of contractile responses on the endothelium (rat aorta [2]),percent relaxation to acetylcholine at 1 µM (rat aorta [3]) [%],relative potency as calcium channel antagonist ([1]; comparison between substances),inhibition of contractile response to U46619 (rat aorta [2]; [4]),inhibition of contractile response to norepinephrine (rat aorta [2]; [4]),inhibition of contractile response to serotonin (rat aorta [2]; [4]),potency in inhibiting contraction to serotonin relative to norepinephrine or U46619 (rat aorta [2]; rat aorta)
"O=C(c1ccc(OCCN2CCCCC2)cc1)c1c(-c2ccc(O)cc2)sc2cc(O)ccc12 [Compound 14, 6-hydroxy-2-(4-hydroxyphenyl)-3-[4-(2-piperidinoethoxy)benzoyl]benzo[b]thiophene]",inhibition of the contraction to BayK 8644 occurred,inhibited,greater than with norepinephrine,marked inhibitory effect,independent of an intact endothelium,,,,,,
CC(=O)OCC[N+](C)(C)C [acetylcholine],,,,,,88.5 ± 1.6,,,,,
"O=C(c1ccc(OCCN2CCCC2)cc1)c1c(-c2ccc(O)cc2)sc2cc(O)ccc12 [Compound 16, 6-hydroxy-2-(4-hydroxyphenyl)-3-[4-(2-pyrrolidinoethoxy)benzoyl]benzo[b]thiophene]",inhibition of the contraction to BayK 8644 occurred,,,marked inhibitory effect,appeared independent of the endothelium,,considerably more potent as a calcium channel antagonist than 14; also recorded: more potent calcium channel antagonist in vascular tissue than estrogen,potently inhibited,potently inhibited,potently inhibited,more potent in inhibiting the contractile response to serotonin relative to norepinephrine or U46619
